This is an account of results in patent US8404869B2, “Phenanthrenequinone-based compound and pharmaceutical composition containing the same for the treatment or prevention of disease involving metabolic syndrome” (Mazence Inc., priority 2007, dated 2013).

Assay [1] concerns AMPK. Put plainly: Determination of AMPK activation in differentiated C2C12 myoblast cells (SAMS peptide, [γ-32P]ATP). It counts as cell-based. To be noted: C2C12 myoblast cells treated at 5 μg/ml; DMSO (0.5%) control = 1. As for the experimental part:
Myoblast cells, C2C12, were cultured in DMEM containing 10% bovine calf serum. When a cell density reached a range of about 85% to 90%, the culture medium was replaced with a medium containing 1% bovine calf serum to induce differentiation of cells. The thus-differentiated myoblast cells were treated with samples synthesized in Examples 1 through 16 at a concentration of 5 μg/ml, and compared with a control group. Enzymatic activity of AMPK was determined as follows. Firstly, C2C12 cells were lysed to obtain protein extracts and then ammonium sulfate was added to a final concentration of 30%, thereby precipitating proteins. Protein precipitates were dissolved in a buffer (62.5 mM Hepes, pH 7.2, 62.5 mM NaCl, 62.5 mM NaF, 1.25 mM Na pyrophosphate, 1.25 mM EDTA, 1 mM DTT, 0.1 mM PMSF, and 200 μM AMP). Thereafter, 200 μM SAMS peptide (HMRSAMSGLHLVKRR: the underlined serine residue is a phosphorylation site, as an AMPK phosphorylation site of acetyl-CoA carboxylase) and [γ-32P]ATP were added thereto and reactants were reacted for 10 minutes at 30° C. This was followed by spotting of the resulting reaction solution on p81 phosphocellulose paper. The p81 paper was washed with a 3% phosphoric acid solution and radioactivity thereof was measured. For each reaction condition, reactions involving no SAMS peptide were also conducted and basic values were subtracted from the thus-observed values.

Assay [2] relates to C57BL/6JL Lep ob/Lep ob mice. Put plainly: Blood biomarkers (lipid, glucose, enzyme levels) in ob/ob mice. It counts as in vivo. Also on record: unit not given here. To be noted: after mixed-feed of 0.4% for 18 days. On the procedure: (§1) 10-week-old C57BL/6JL Lep ob/Lep ob male mice having obesity characteristics and predisposition were purchased from Daehan Biolink Co., Ltd. (Chungchongbuk-do, Korea). Animals were raised in a breeding room maintained at a temperature of 23° C., 55% humidity, illumination of 300 to 500 lux, a 12-h light/dark (L/D) cycle, and ventilation of 10 to 18 times/hr. Animals were fed ad libitum pellets of Purina Rodent Laboratory Chow 5001 (purchased from Purina Mills Inc., St. Louis, Mo., USA) as a solid feed for experimental animals and tap water as drinking water. Mice were allowed to acclimate to new environment of the breeding room for two weeks and were then administered some pyrano-3,4-phenanthrenequinone or furano-3,4-naphthoquinone derivatives synthesized according to the present invention at mixed-feed of 0.4% for 18 days. Observation was made on changes in body weight, blood glucose and dietary intake, with respect to a time course of administration. After administration was complete, confirm changes in glucose, lipid and enzyme levels in blood.
(§2) For comparison, the same experiments were carried out for the subject (negative control group) to which the active ingredient was not administered, and subject (positive control group) to which Cryptotanshinone, extracted from Danshen by a method as set forth in Example 1 of the Korean Patent Application No. 2004-0116339 by the present applicant, was administered by the above-mentioned condition.

Assay [3] concerns C57BL/6JL Lep ob/Lep ob mice. Put plainly: Weight loss effects in obese mice (ob/ob). As to conditions: mixed-feed of 0.4% for 18 days; for change in vivo at 0.4 % in feed: Mus musculus, po, 432 h, read-out: Increase in BW; for change in vivo at 0.4 % in feed / Increase in BW: (Final BW−Initial BW)/Initial BW×100; for Final BW: ob/ob male mice. The assay is classed as in vivo. On the procedure: as §1, §2
Herein, ‘Increase in BW’ is calculated as the following; Increase in BW=(Final BW−Initial BW)/Initial BW×100

The molecule `CC1C2=C(OC1(C)C)c1ccc3c(c1C(=O)C2=O)CCCC3(C)C` (stereo not shown) [Example 5, 1,2,2,6,6-Pentamethyl-1,2,6,7,8,9-hexahydro-phenanthro[1,2-b]furan-10,11-dione] returned an AMPK fold in assay [1] of 2.3 fold. In assay [2], this molecule had a GOT of 377.5, a GPT of 251.0, an HDL chol of 45.5 and an LDL chol of 14.05. Also, in assay [2], the T. chol was determined as 126.5, the glucose is 141 and the triglyceride is given as 77.0. For the same molecule, in assay [3], the change in vivo at 0.4 % in feed was -7.8% and the “Final BW” value is reported as 47.9 ± 3.1 g.

Take `CC1CC2=C(O1)c1ccc3ccc(Cl)cc3c1C(=O)C2=O` (stereo not shown) [Example 13, 8-Chloro-2-methyl-1,2-dihydro-phenanthro[1,2-b]furan-10,11-dione]: in assay [1], the AMPK fold is on record as 2.3 fold. Moreover, in assay [2], the GOT stood at 373.5, the GPT is given as 184.0, the HDL chol is 44.0 and the LDL chol was 12.00. In assay [2], the T. chol is 125.5, the glucose came out at 138 and the triglyceride was found to be 85.3. Also, in assay [3], the change in vivo at 0.4 % in feed is -6.3% and the “Final BW” value stood at 48.8 ± 2.5 g.

Take `CC1OC2=C(C(=O)C(=O)c3c2ccc2c3CCCC2(C)C)C1(C)C` (stereo not shown) [Example 4, 1,1,2,6,6-Pentamethyl-1,2,6,7,8,9-hexahydro-phenanthro[1,2-b]furan-10,11-dione]: the AMPK fold in assay [1] was found to be 2.2 fold. In assay [2], this molecule registered a GOT of 476.7, a GPT of 285.0, an HDL chol of 45.0 and an LDL chol of 10.00. Also, in assay [2], the T. chol is reported as 127.5, the glucose worked out at 128 and the triglyceride is 76.7. Also, in assay [3], the change in vivo at 0.4 % in feed is -7.1% and the “Final BW” value is 48.6 ± 3.3 g.

The molecule `Cc1cc2c(c3ccccc13)C(=O)C(=O)C1=C2OC(C)C1(C)C` (stereo not shown) [Example 10, 1,1,2,5-Tetramethyl-1,2-dihydro-phenanthro[1,2-b]furan-10,11-dione] registered an AMPK fold in assay [1] of 2.4 fold. In assay [2], this molecule gave a GOT of 283.3, a GPT of 66.7, an HDL chol of 45.0 and an LDL chol of 5.00. Besides, in assay [2], the T. chol is given as 115.0, the glucose worked out at 121 and the triglyceride is given as 88.3. In assay [3], the change in vivo at 0.4 % in feed was -20.3% and the “Final BW” value is listed as 41.1 ± 1.3 g.

As for `CC1CC2=C(O1)c1ccc3c(c1C(=O)C2=O)CCCC3(C)C` (single isomer, unassigned) [Example 2, 2,6,6-Trimethyl-1,2,6,7,8,9-hexahydro-phenanthro[1,2-b]furan-10,11-dione], the AMPK fold in assay [1] is given as 2.4 fold. In addition, in assay [2] (listed as Ex. 2), the GOT amounted to 378.8, the GPT is 215.0, the HDL chol amounted to 38.8 and the LDL chol is given as 21.67. For the same molecule, in assay [2] (listed as Ex. 2), the T. chol is on record as 125.0, the glucose amounted to 125 and the triglyceride came out at 58.8. Further, in assay [3], the “Increase in BW” value is −15.9% and the “Final BW” value amounted to 44.4 ± 3.4 g.

In assay [1], `Cc1ccc2ccc3c(c2c1)C(=O)C(=O)C1=C3OC(C)C1` (stereo not shown) [Example 14, 2,8-Dimethyl-1,2-dihydro-phenanthro[1,2-b]furan-10,11-dione] came in with an AMPK fold of 2.5 fold. Moreover, in assay [2], the GOT amounted to 283.3, the GPT is recorded as 66.7, the HDL chol amounted to 45.0 and the LDL chol is recorded as 5.00. In addition, in assay [2], the T. chol was 115.0, the glucose amounted to 146 and the triglyceride is recorded as 88.3. In assay [3], the change in vivo at 0.4 % in feed is -7% and the “Final BW” value amounted to 48.7 ± 1.9 g.

With `C[C@H]1COC2=C1C(=O)C(=O)c1c2ccc2c1CCCC2(C)C` [Positive control group, Cryptotanshinone, reference compound], in assay [2], the GOT came to 255.0, the GPT amounted to 149.0, the HDL chol is on record as 48.0 and the LDL chol worked out at 11.0. In assay [2], this molecule showed a T. chol of 135.0 and a triglyceride of 100.9. For the same molecule, in assay [3], the change in vivo at 0.4 % in feed is -1.2% and the “Final BW” value came to 51.6 ± 1.7 g.

As for `Cc1cc2c(c3ccccc13)C(=O)C(=O)C1=C2OC(C)C1` (stereo not shown) [Example 9, 2,5-Dimethyl-1,2-dihydro-phenanthro[1,2-b]furan-10,11-dione], the AMPK fold in assay [1] amounted to 2.3 fold. In assay [2], this molecule displayed a GOT of 355.0, a GPT of 77.0, an HDL chol of 48.0 and an LDL chol of 11.00. In assay [2], this molecule registered a T. chol of 135.0, a glucose of 136 and a triglyceride of 72.0. Further, in assay [3], the change in vivo at 0.4 % in feed was -6% and the “Final BW” value is recorded as 48.9 ± 1.7 g.

In turn, `CC1(C)CCC2=C(O1)c1ccc3c(c1C(=O)C2=O)CCCC3` [Example 6, 3,3-Dimethyl-2,3,7,8,9,10-hexahydro-1H-4-oxa-chrysene-11,12-dione] returned an AMPK fold in assay [1] of 2.2 fold. In assay [2], this molecule gave a GOT of 392.5, a GPT of 250.0, an HDL chol of 49.0 and an LDL chol of 13.00. For the same molecule, in assay [2], the T. chol was 129.5, the glucose is 145 and the triglyceride was determined as 69.5. In addition, in assay [3], the change in vivo at 0.4 % in feed was -6.3% and the “Final BW” value is 49.0 ± 2.7 g.

In assay [1], `CC1CC2=C(O1)c1ccc3ccc(C(C)(C)C)cc3c1C(=O)C2=O` (stereo not shown) [Example 11, 8-tert-Butyl-2-methyl-1,2-dihydro-phenanthro[1,2-b]furan-10,11-dione] yielded an AMPK fold of 2.3 fold. In assay [2], this molecule showed a GOT of 347.5, a GPT of 197.5, an HDL chol of 47.5 and an LDL chol of 9.95. In assay [2], this molecule returned a T. chol of 134.0, a glucose of 175 and a triglyceride of 82.0. Moreover, in assay [3], the change in vivo at 0.4 % in feed was -1.2% and the “Final BW” value was determined as 52.2 ± 1.4 g.

Turning to `CC1CC2=C(O1)c1ccc3c(c1C(=O)C2=O)CCCC3(C)C` (single isomer, unassigned) [Example 3, 2,6,6-Trimethyl-1,2,6,7,8,9-hexahydro-phenanthro[1,2-b]furan-10,11-dione], in assay [1], the AMPK fold worked out at 2.2 fold. For the same molecule, in assay [2] (listed as Ex. 3), the GOT was found to be 247.5, the GPT is on record as 160.0, the HDL chol stood at 42.5 and the LDL chol was 12.00. Also, in assay [2] (listed as Ex. 3), the T. chol came out at 134.0, the glucose amounted to 132 and the triglyceride was found to be 61.7. In assay [3], the “Increase in BW” value was −11.9% and the “Final BW” value worked out at 46.1 ± 2.1 g.

`CC1CC2=C(O1)c1ccc3ccccc3c1C(=O)C2=O` (stereo not shown) [Example 7, 2-Methyl-1,2-dihydro-phenanthro[1,2-b]furan-10,11-dione] gave an AMPK fold in assay [1] of 2.2 fold. For the same molecule, in assay [2], the GOT amounted to 286.7, the GPT is on record as 143.8, the HDL chol was found to be 58.8 and the LDL chol came to 14.00. Further, in assay [2], the T. chol is reported as 148.8, the glucose is 156 and the triglyceride was 70.0. In assay [3], the change in vivo at 0.4 % in feed is -3.9% and the “Final BW” value came to 49.6 ± 2.6 g.
